Experimental data from patent US9265276B2, “Reducing astringency in compositions containing phenolic compounds” (Nestec S.A., priority 2008, dated 2016).
Each block holds one compound with its values, some of them ahead of it.

Experiments:
[1] = Free and bound catechins: binding to lecithin (centrifugation, HPLC); conditions: for binding to the lecithin (in words): green tea samples with lecithin 0.05, 0.1, 0.15%
Protocol: Phosphate buffer was added to each sample to give a final concentration of 20 mM at pH 6.0 before they were pre-homogenized with an Ultraturrax at full speed. The dispersions were flushed with nitrogen for 5 minutes and then green tea extract was added for a final concentration of 0.2%. After gentle stirring for 15 min the mixes were finally homogenized with a Microfluidizer processor (Microfluidics, Newton, Mass., USA) with 1 run at 250 bar. […] The homogenized dispersions were filled into 1 lt glass bottles and were sterilized (30 sec at 80° C.) in a water bath heated with steam. Green tea catechins were analysed in the fresh and stored samples by HPLC on a C-18 column, using UV detection at 280 nm. For total catechin determination samples were treated with concentrated acetic acid and the extracts were stabilised with ascorbic acid, EDTA and acetonitrile. For free catechin determination each sample was previously spun at 14,000×g for 30 min using an Eppendorf (Dr Vaudaux A G, Binningen, C H) centrifuge 5415. The resulting supernatant was then treated as previously described. Stability and binding to phospholipids were calculated for (-)-epigallocatechin (Egc), (-)-epigallocatechin-3-gallate (Egcg), and caffeine.

[2] = Stability of green tea catechins during storage at room temperature (HPLC); format: physicochemical; conditions: for catechins (% recovered): room temperature, pH 6.0
Protocol: Soya lecithin was dispersed in distilled water to yield different concentrations (0.05%; 0.1% and 0.2%) by stirring the mixes at 37° C. for 2 h. Phosphate buffer was added to each sample to give a final concentration of 20 mM at pH 6.0 before they were pre-homogenized with an Ultraturrax at full speed. The dispersions were flushed with nitrogen for 5 minutes and then green tea extract was added for a final concentration of 0.2%. After gentle stirring for 15 min the mixes were finally homogenized with a Microfluidizer processor (Microfluidics, Newton, Mass., USA) with 1 run at 250 bar. The same protocol was followed for preparing the green tea control except that no lecithin was added. The homogenized dispersions were filled into 1 lt glass bottles and were sterilized (30 sec at 80° C.) in a water bath heated with steam.
The sterilized samples were stored at room temperature up to 25 days. No microbiological contamination with mesophilic germs or Enterobacteriaceae was detected throughout the storage test.
Green tea catechins were analysed in the fresh and stored samples by HPLC on a C-18 column, using UV detection at 280 nm. For total catechin determination samples were treated with concentrated acetic acid and the extracts were stabilised with ascorbic acid, EDTA and acetonitrile. For free catechin determination each sample was previously spun at 14,000×g for 30 min using an Eppendorf (Dr Vaudaux A G, Binningen, C H) centrifuge 5415. The resulting supernatant was then treated as previously described. Stability and binding to phospholipids were calculated for (−)-epigallocatechin (Egc), (−)-epigallocatechin-3-gallate (Egcg), and caffeine.

[3] = green tea 0.2% + lecithin 0.05%, storage 0 d
[4] = green tea 0.2% + lecithin 0.05%, storage 2 d
[5] = green tea 0.2% + lecithin 0.05%, storage 9 d
[6] = green tea 0.2% + lecithin 0.05%, storage 13 d
[7] = green tea 0.2% + lecithin 0.05%, storage 22 d
[8] = green tea 0.2% + lecithin 0.1%, storage 0 d
[9] = green tea 0.2% + lecithin 0.1%, storage 2 d
[10] = green tea 0.2% + lecithin 0.1%, storage 9 d
[11] = green tea 0.2% + lecithin 0.1%, storage 13 d
[12] = green tea 0.2% + lecithin 0.1%, storage 22 d
[13] = green tea 0.2% + lecithin 0.2%, storage 0 d
[14] = green tea 0.2% + lecithin 0.2%, storage 2 d
[15] = green tea 0.2% + lecithin 0.2%, storage 9 d
[16] = green tea 0.2% + lecithin 0.2%, storage 13 d
[17] = green tea 0.2% + lecithin 0.2%, storage 22 d

- binding to the lecithin (in words) [1]: interact with the added lecithin
SMILES: O=C(O[C@@H]1Cc2c(O)cc(O)cc2O[C@@H]1c1ccc(O)c(O)c1)c1cc(O)c(O)c(O)c1 [Ecg, epicatechin gallate]

- catechins (% recovered) [2, 3]: 100%
- catechins (% recovered) [2, 4]: 95%
- catechins (% recovered) [2, 5]: 78%
- catechins (% recovered) [2, 6]: 68%
- catechins (% recovered) [2, 7]: 55%
- catechins (% recovered) [2, 8]: 100%
- catechins (% recovered) [2, 9]: 98%
- catechins (% recovered) [2, 10]: 82%
- catechins (% recovered) [2, 11]: 74%
- catechins (% recovered) [2, 12]: 62%
- catechins (% recovered) [2, 13]: 100%
- catechins (% recovered) [2, 14]: 99%
- catechins (% recovered) [2, 15]: 88%
- catechins (% recovered) [2, 16]: 82%
- catechins (% recovered) [2, 17]: 71%
- catechins (% recovered) ([2]; green tea 0.2%, storage 0 d): 100%
- catechins (% recovered) ([2]; green tea 0.2%, storage 2 d): 94%
- catechins (% recovered) ([2]; green tea 0.2%, storage 9 d): 67%
- catechins (% recovered) ([2]; green tea 0.2%, storage 13 d): 53%
- catechins (% recovered) ([2]; green tea 0.2%, storage 22 d): 33%
- stabilisation by lecithin during storage (in words) ([2]; storage of the green tea samples): dose-dependent stabilisation
- bound catechins (% recovered in pellet) [1, 3]: 18%
- bound catechins (% recovered in pellet) [1, 4]: 17%
- bound catechins (% recovered in pellet) [1, 5]: 21%
- bound catechins (% recovered in pellet) [1, 6]: 22%
- bound catechins (% recovered in pellet) [1, 7]: 22%
- bound catechins (% recovered in pellet) [1, 8]: 33%
- bound catechins (% recovered in pellet) [1, 9]: 30%
- bound catechins (% recovered in pellet) [1, 10]: 37%
- bound catechins (% recovered in pellet) [1, 11]: 38%
- bound catechins (% recovered in pellet) [1, 12]: 39%
- bound catechins (% recovered in pellet) [1, 13]: 46%
- bound catechins (% recovered in pellet) [1, 14]: 45%
- bound catechins (% recovered in pellet) [1, 15]: 53%
- bound catechins (% recovered in pellet) [1, 16]: 55%
- bound catechins (% recovered in pellet) [1, 17]: 59%
- bound catechins (% recovered in pellet) ([1]; green tea 0.2%, storage 0 d): 1%
- bound catechins (% recovered in pellet) ([1]; green tea 0.2%, storage 2 d): 1%
- bound catechins (% recovered in pellet) ([1]; green tea 0.2%, storage 9 d): 1%
- bound catechins (% recovered in pellet) ([1]; green tea 0.2%, storage 13 d): 2%
- bound catechins (% recovered in pellet) ([1]; green tea 0.2%, storage 22 d): 2%
- binding to the lecithin (in words) [1]: interact with the added lecithin
SMILES: O=C(O[C@@H]1Cc2c(O)cc(O)cc2O[C@@H]1c1cc(O)c(O)c(O)c1)c1cc(O)c(O)c(O)c1 [Egcg, (−)-epigallocatechin-3-gallate]
- percentage of bound Egcg during storage (in words) ([1]; lecithin containing green tea samples during storage): not only remained constant but rather slightly increased with time

SMILES: Cn1c(=O)c2c(ncn2C)n(C)c1=O [caffeine]
- stability during storage (in words) [2]: quite stable under the chosen storage conditions

- catechins (% recovered) [2, 3]: 100%
- catechins (% recovered) [2, 4]: 92%
- catechins (% recovered) [2, 5]: 72%
- catechins (% recovered) [2, 6]: 59%
- catechins (% recovered) [2, 7]: 42%
- catechins (% recovered) [2, 8]: 100%
- catechins (% recovered) [2, 9]: 94%
- catechins (% recovered) [2, 10]: 70%
- catechins (% recovered) [2, 11]: 57%
- catechins (% recovered) [2, 12]: 39%
- catechins (% recovered) [2, 13]: 100%
- catechins (% recovered) [2, 14]: 91%
- catechins (% recovered) [2, 15]: 64%
- catechins (% recovered) [2, 16]: 49%
- catechins (% recovered) [2, 17]: 30%
- catechins (% recovered) ([2]; green tea 0.2%, storage 0 d): 100%
- catechins (% recovered) ([2]; green tea 0.2%, storage 2 d): 93%
- catechins (% recovered) ([2]; green tea 0.2%, storage 9 d): 65%
- catechins (% recovered) ([2]; green tea 0.2%, storage 13 d): 50%
- catechins (% recovered) ([2]; green tea 0.2%, storage 22 d): 28%
- bound catechins (% recovered in pellet) [1, 3]: 1%
- bound catechins (% recovered in pellet) [1, 4]: 3%
- bound catechins (% recovered in pellet) [1, 5]: 1%
- bound catechins (% recovered in pellet) [1, 6]: 1%
- bound catechins (% recovered in pellet) [1, 7]: 0%
- bound catechins (% recovered in pellet) [1, 8]: 2%
- bound catechins (% recovered in pellet) [1, 9]: 4%
- bound catechins (% recovered in pellet) [1, 10]: 2%
- bound catechins (% recovered in pellet) [1, 11]: 2%
- bound catechins (% recovered in pellet) [1, 12]: 2%
- bound catechins (% recovered in pellet) [1, 13]: 5%
- bound catechins (% recovered in pellet) [1, 14]: 6%
- bound catechins (% recovered in pellet) [1, 15]: 5%
- bound catechins (% recovered in pellet) [1, 16]: 5%
- bound catechins (% recovered in pellet) [1, 17]: 6%
- bound catechins (% recovered in pellet) ([1]; green tea 0.2%, storage 0 d): 3%
- bound catechins (% recovered in pellet) ([1]; green tea 0.2%, storage 2 d): 0%
- bound catechins (% recovered in pellet) ([1]; green tea 0.2%, storage 9 d): 0%
- bound catechins (% recovered in pellet) ([1]; green tea 0.2%, storage 13 d): 0%
- bound catechins (% recovered in pellet) ([1]; green tea 0.2%, storage 22 d): 0%
SMILES: Oc1cc(O)c2c(c1)O[C@H](c1cc(O)c(O)c(O)c1)[C@H](O)C2 [Egc, (−)-epigallocatechin]
